23 molecules from US9605005B2, “Alkynyl alcohols and methods of use” (Genentech, Inc., priority 2013, dated 2017) can be followed below.

For assay [1], the system named is REL-A (p65) nuclear translocation, HeLa cells. In words: REL-A (p65) nuclear translocation assay in HeLa cells (classical NF-kB signaling, TNF-α stimulated). In kind it is cell-based. The settings on record: Homo sapiens, 0.5 h; HeLa cells, 10 ng/mL TNF-α for 30 minutes; read-out: REL-A HeLa Transloc Assay (IC50). The method, boiled down: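 HeLa cells were exposed to test compounds at various concentrations (0.2% DMSO final) in medium with 10% fetal bovine serum for 4.5 hours, then stimulated for 30 minutes with 10 ng/mL TNF-α. After fixation in 4% paraformaldehyde, 0.1% Triton X-100 permeabilization and staining with 400 ng/mL anti-REL-A (p65) antibody, Alexa488 secondary and DRAQ5, Opera imaging gave nuclear-to-cytoplasmic signal ratios to calculate IC50.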

Assay [2] concerns p52 (NF-kB2) nuclear translocation, HeLa cells. Put plainly: p52 (NF-kB2) nuclear translocation assay in HeLa cells (non-classical NF-kB signaling, anti-lymphotoxin beta receptor antibody stimulated). The assay is classed as cell-based. The settings on record: Homo sapiens, 100 ng/mL anti-lymphotoxin beta receptor antibody for 5 hours, read-out: p52 HeLa Transloc Assay (IC50). The method, boiled down:
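HeLa cells in 10% FBS medium were treated with compound (0.2% DMSO final) and stimulated with 100 ng/mL anti-lymphotoxin beta receptor antibody for 5 h. Fixed cells were immunostained for p52 and imaged with DRAQ5 nuclear stain. Translocation is the nuclear to cytoplasmic intensity ratio, and IC50 values are in micromolar.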

The target in assay [3] is nuclear factor-kappa B (NF-kB)-inducing kinase (NIK) (Homo sapiens (Human), UniProt Q99558). Put plainly: NIK enzyme inhibition assay (Transcreener ADP, NIK ADP-FP). In kind it is biochemical. The settings on record: purified NIK 0.5 nM, 10 μM ATP, fluorescence polarization; read-out: NIK ADP-FP (Ki μM).

In general, IC50 refers to the concentration at which inhibition is half-maximal. Usually Ki stands for the dissociation constant of the complex between target and ligand, obtained from inhibition or displacement.

nuclear factor-kappa B (NF-kB)-inducing kinase (NIK), sequence (Q99558 whole entry): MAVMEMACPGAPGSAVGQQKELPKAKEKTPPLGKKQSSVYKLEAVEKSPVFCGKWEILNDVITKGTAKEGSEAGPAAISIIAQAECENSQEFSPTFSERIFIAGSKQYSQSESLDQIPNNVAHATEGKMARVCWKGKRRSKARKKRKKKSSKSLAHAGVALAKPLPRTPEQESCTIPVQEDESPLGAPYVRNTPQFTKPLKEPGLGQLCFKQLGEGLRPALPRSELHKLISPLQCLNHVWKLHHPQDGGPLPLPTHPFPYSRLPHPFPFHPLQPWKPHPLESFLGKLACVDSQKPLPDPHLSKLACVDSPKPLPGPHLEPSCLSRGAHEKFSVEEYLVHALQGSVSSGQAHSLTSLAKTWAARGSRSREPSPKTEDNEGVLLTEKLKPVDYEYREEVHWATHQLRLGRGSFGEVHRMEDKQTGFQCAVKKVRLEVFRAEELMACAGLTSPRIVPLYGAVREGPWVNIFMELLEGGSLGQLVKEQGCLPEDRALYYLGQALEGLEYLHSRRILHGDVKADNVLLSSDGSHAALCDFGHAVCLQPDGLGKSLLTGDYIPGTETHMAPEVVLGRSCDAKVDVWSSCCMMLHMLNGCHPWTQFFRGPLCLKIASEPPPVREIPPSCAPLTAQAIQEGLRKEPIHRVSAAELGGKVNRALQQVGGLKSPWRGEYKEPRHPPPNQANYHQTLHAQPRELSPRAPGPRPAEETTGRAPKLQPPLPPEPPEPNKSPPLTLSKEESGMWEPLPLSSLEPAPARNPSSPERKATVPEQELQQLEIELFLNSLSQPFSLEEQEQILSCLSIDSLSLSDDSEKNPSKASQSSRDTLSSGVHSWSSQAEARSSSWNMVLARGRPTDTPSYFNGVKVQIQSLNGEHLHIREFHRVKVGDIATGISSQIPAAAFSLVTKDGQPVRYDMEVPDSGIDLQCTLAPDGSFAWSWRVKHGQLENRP

With `Cc1cc2c(cn1)c(C(N)=O)nn2-c1cccc(C#C[C@]2(O)CCN(C)C2=O)c1` [Compound 131, 1-[3-[2-[(3R)-3-hydroxy-1-methyl-2-oxo-pyrrolidin-3-yl]ethynyl]phenyl]-6-methyl-pyrazolo[4,3-c]pyridine-3-carboxamide], the IC50 in assay [1] was 20000 nM; in assay [2] it was 87 nM. Also, the Ki in assay [3] turned out to be 0.31 nM.
For the molecule `NC(=O)c1nn(-c2cc(C#C[C@]3(O)CCc4cccnc43)ccn2)c2cc(F)ccc12` [Compound 72, 6-fluoro-1-[4-[2-[(7R)-7-hy-droxy-5,6-dihydrocyclopen-ta[b]pyridin-7-yl]ethynyl]-2-pyridyl]indazole-3-carbox-amide], the IC50 turned out to be 20000 nM in assay [1] and 247 nM in assay [2]. In assay [3], the inhibitory constant (Ki) turned out to be 0.14 nM.
The corresponding values for `CN1CC[C@@](O)(C#Cc2cccc(-n3nc(C(N)=O)c4ccc(C#N)cc43)c2)C1=O` [Compound 46, 6-cyano-1-[3-[2-[(3R)-3-hy-droxy-1-methyl-2-oxo-pyrroli-din-3-yl]ethynyl]phenyl] indazole-3-carboxamide] are 20000 nM, 123 nM and 0.5 nM.
Turning to `Cc1nc2c(s1)c(C(N)=O)nn2-c1cccc(C#C[C@]2(O)CCN(C)C2=O)c1` [Compound 25, 1-[3-[2-[(3R)-3-hydroxy-1-methyl-2-oxo-pyrrolidin-3-yl]ethynyl]phenyl]-5-methyl-pyrazolo[3,4-d]thiazole-3-carboxamide], the IC50 in assay [1] was 20000 nM; in assay [2], 44.6 nM. For the same molecule, the Ki in assay [3] turned out to be 0.41 nM.
The corresponding values for `CN1CC[C@@](O)(C#Cc2cccc(-n3nc(C(N)=O)c4c3CCN(c3nccs3)C4)c2)C1=O` [Compound 122, 1-[3-[2-[(3R)-3-hydroxy-1-methyl-2-oxo-pyrrolidin-3-yl]ethynyl]phenyl]-5-thiazol-2-yl-6,7-dihydro-4H-pyra-zolo[4,3-c]pyridine-3-carbox-amide] are 20000 nM, 266 nM and 0.29 nM.
For `CN1CC[C@@](O)(C#Cc2cc(-n3nc(C(N)=O)c4cccnc43)cc(C(F)(F)F)c2)C1=O` [Compound 36, 1-[3-[2-[(3R)-3-hydroxy-1-methyl-2-oxo-pyrrolidin-3-yl]ethynyl]-5-(trifluorometh-yl)phenyl]pyrazolo[3,4-b] pyridine-3-carboxamide], the IC50 in assay [1] worked out at 20000 nM; in assay [2], 164 nM. Besides, the Ki in assay [3] is 5.53 nM.
In the case of `NC(=O)c1nn(-c2cc(C#C[C@]3(O)CCNC3=O)ccn2)c2cc(F)ccc12` [Compound 71, 6-fluoro-1-[4-[2-[(3R)-3-hy-droxy-2-oxo-pyrrolidin-3-yl]ethynyl]-2-pyridyl]indazole-3-carboxamide], the IC50 in assay [1] was determined as 20000 nM; in assay [2] it was 178 nM. Also, the Ki in assay [3] amounted to 0.64 nM.
The corresponding values for `CN1CC[C@@](O)(C#Cc2cccc(-n3nc(C(N)=O)c4cc(F)cnc43)c2)C1=O` [Compound 75, 5-fluoro-1-[3-[2-[(3R)-3-hy-droxy-1-methyl-2-oxo-pyrroli-din-3-yl]ethynyl]phenyl] pyrazolo[3,4-b]pyridine-3-carboxamide] are 20000 nM, 56.9 nM and 0.24 nM.
The corresponding values for `CN1CC[C@@](O)(C#Cc2cccc(-n3nc(C(N)=O)c4cc(OCCN5CCC5)ccc43)c2)C1=O` [Compound 161, 5-[2-(azetidin-1-yl)ethoxy]-1-[3-[2-[(3R)-3-hydroxy-1-methyl-2-oxo-pyrrolidin-3-yl]ethynyl]phenyl]indazole-3-carboxamide] are 2000 nM, 770 nM and 2.52 nM.
Take `CN1CC[C@@](O)(C#Cc2cccc(-n3nc(C(N)=O)c4ccc(-c5cnn(C)c5)nc43)c2)C1=O` [Compound 156, 1-[3-[2-[(3R)-3-hydroxy-1-methyl-2-oxo-pyrrolidin-3-yl]ethynyl]phenyl]-6-(1-meth-ylpyrazol-4-yl)pyrazolo[3,4-b] pyridine-3-carboxamide]: the figures for the IC50 in assay [1] and in assay [2] were 2000 nM and 95.7 nM, respectively. In assay [3], the Ki is 0.09 nM.
The corresponding values for `CN1CC[C@@](O)(C#Cc2cc(-n3nc(C(N)=O)c4c3CCCC4)ccn2)C1=O` [Compound 166, 1-[2-[2-[(3R)-3-hydroxy-1-methyl-2-oxo-pyrrolidin-3-yl]ethynyl]-4-pyridyl]-4,5,6,7-tetrahydroindazole-3-carbox-amide] are 20000 nM, 320 nM and 1.19 nM.
The corresponding values for `COc1ccc2c(C(N)=O)nn(-c3cccc(C#C[C@]4(O)CCN(C)C4=O)c3)c2c1` [Compound 22, 1-[3-[2-[(3R)-3-hydroxy-1-methyl-2-oxo-pyrrolidin-3-yl]ethynyl]phenyl]-6-methoxy-indazole-3-carboxamide] are 20000 nM, 94.8 nM and 0.34 nM.
As to `CNc1nccc2c1c(C(N)=O)nn2-c1cccc(C#C[C@]2(O)CCN(C)C2=O)c1` [Compound 49, 1-[3-[2-[(3R)-3-hydroxy-1-methyl-2-oxo-pyrrolidin-3-yl]ethynyl]phenyl]-4-(meth-ylamino)pyrazolo[4,3-c]pyri-dine-3-carboxamide], the IC50 is 8000 nM in assay [1] and 7.7 nM in assay [2]. Moreover, the Ki in assay [3] was found to be 0.05 nM.
The corresponding values for `CN1CC[C@@](O)(C#Cc2cccc(-n3nc(C(N)=O)c4cnc(C5CC5)nc43)c2)C1=O` [Compound 158, 6-cyclopropyl-1-[3-[2-[(3R)-3-hydroxy-1-methyl-2-oxo-pyrrolidin-3-yl]ethynyl]phenyl]pyrazolo[3,4-d]pyri-midine-3-carboxamide] are 2000 nM, 46.2 nM and 0.23 nM.
The corresponding values for `CN1CC[C@@](O)(C#Cc2cccc(-c3nc(C(N)=O)n4ccc(C(N)=O)cc34)c2)C1=O` [Compound 178, 1-[3-[2-[(3R)-3-hydroxy-1-methyl-2-oxo-pyrrolidin-3-yl]ethynyl]phenyl]imidazo [1,5-a]pyridine-3,7-dicarboxamide] are over 2000 nM, 636 nM and 0.1 nM.
The corresponding values for `CN1CC[C@@](O)(C#Cc2cccc(-n3nc(C(N)=O)c4ccc(N5CCOCC5)nc43)c2)C1=O` [Compound 155, 1-[3-[2-[(3R)-3-hydroxy-1-methyl-2-oxo-pyrrolidin-3-yl]ethynyl]phenyl]-6-morpho-lino-pyrazolo[3,4-b]pyri-dine-3-carboxamide] are 20000 nM, 129 nM and 0.26 nM.
As to `CN1CC[C@@](O)(C#Cc2cccc(-n3nc(C(N)=O)c4cnccc43)c2)C1=O` [Compound 132, 1-[3-[2-[(3R)-3-hydroxy-1-methyl-2-oxo-pyrrolidin-3-yl]ethynyl]phenyl]pyrazolo [4,3-c]pyridine-3-carboxamide], the IC50 is 20000 nM in assay [1] and 88.7 nM in assay [2]. In assay [3], the Ki amounted to 0.378 nM.
The corresponding values for `CN1CC[C@@](O)(C#Cc2cccc(-n3nc(C(N)=O)c4c3COC4)c2)C1=O` [Compound 146, 1-[3-[2-[(3R)-3-hydroxy-1-methyl-2-oxo-pyrrolidin-3-yl]ethynyl]phenyl]-4,6-dihydro-furo[3,4-c]pyrazole-3-carbox-amide] are 20000 nM, 220 nM and 1.77 nM.
Regarding `COc1cc(C#C[C@]2(O)CCN(C)C2=O)cc(-n2nc(C(N)=O)c3cccnc32)c1` [Compound 73, 1-[3-[2-[(3R)-3-hydroxy-1-methyl-2-oxo-pyrrolidin-3-yl]ethynyl]-5-methoxy-phe-nyl]pyrazolo[3,4-b]pyridine-3-carboxamide], the IC50 in assay [1] amounted to 20000 nM; in assay [2], 119 nM. Further, the inhibition constant Ki in assay [3] was found to be 1.05 nM.
For the molecule `CN1CC[C@@](O)(C#Cc2cccc(-n3nc(C(N)=O)c4cncnc43)c2)C1=O` [Compound 114, 1-[3-[2-[(3R)-3-hydroxy-1-methyl-2-oxo-pyrrolidin-3-yl]ethynyl]phenyl]pyrazolo [3,4-d]pyrimidine-3-carbox-amide], the IC50 in assay [1] amounted to 20000 nM; in assay [2], 39.4 nM. In addition, the Ki in assay [3] amounted to 0.19 nM.
The corresponding values for `CN1CC[C@@](O)(C#Cc2cccc(-c3nc(C(N)=O)n4ccc(C(F)(F)F)cc34)c2)C1=O` [Compound 91, 1-[3-[2-[(3R)-3-hydroxy-1-methyl-2-oxo-pyrrolidin-3-yl]ethynyl]phenyl]-7-(trifluoro-methyl)imidazo[1,5-a]pyri-dine-3-carboxamide] are 20000 nM, 18.9 nM and 0.15 nM.
The corresponding values for `CCOC(=O)N1CCc2c(c(C(N)=O)nn2-c2cc(C#C[C@]3(O)CCN(C)C3=O)ccn2)C1` [Compound 165, ethyl 3-carbamoyl-1-[4-[2-[(3R)-3-hydroxy-1-methyl-2-oxo-pyrrolidin-3-yl]ethynyl]-2-pyridyl]-6,7-dihydro-4H-pyra-zolo[4,3-c]pyridine-5-car-boxylate] are 20000 nM, 274 nM and 0.23 nM.
As for `CN1CC[C@@](O)(C#Cc2cccc(-c3nc(C(N)=O)n4ccc(OC5CCC5)cc34)c2)C1=O` [Compound 96, 7-(cyclobutoxy)-1-[3-[2-[(3R)-3-hydroxy-1-methyl-2-oxo-pyrrolidin-3-yl]ethynyl]phenyl]imidazo[1,5-a]pyridine-3-carboxamide], the IC50 in assay [1] is 20000 nM; in assay [2], 60.3 nM. The Ki in assay [3] was found to be 0.14 nM.
